# ChEMBL document CHEMBL1134390, “Comparative molecular field analysis of dopamine D4 receptor antagonists including 3-[4-(4-chlorophenyl)piperazin-1-ylmethyl]pyrazolo[1,5-a]pyridine (FAUC 113), 3-[4-(4-chlorophenyl)piperazin-1-ylmethyl]-1H-pyrrolo-[2,3-b]pyridine (L-745,870), and clozapine” (J Med Chem, 2001)
# Target: T1, D(4) dopamine receptor (Homo sapiens) (UniProt P21917)
# T1 sequence (whole entry): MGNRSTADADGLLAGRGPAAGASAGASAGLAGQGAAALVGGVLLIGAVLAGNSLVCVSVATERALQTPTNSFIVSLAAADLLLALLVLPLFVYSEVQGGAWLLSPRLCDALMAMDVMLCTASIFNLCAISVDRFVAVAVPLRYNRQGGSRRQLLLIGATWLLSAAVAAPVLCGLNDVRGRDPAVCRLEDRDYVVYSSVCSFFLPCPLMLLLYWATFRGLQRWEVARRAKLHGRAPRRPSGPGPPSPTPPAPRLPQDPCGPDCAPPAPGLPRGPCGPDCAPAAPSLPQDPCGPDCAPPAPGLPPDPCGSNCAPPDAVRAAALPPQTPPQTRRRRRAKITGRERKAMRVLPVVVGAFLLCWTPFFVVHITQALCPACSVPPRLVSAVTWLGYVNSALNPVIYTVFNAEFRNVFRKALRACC
# Settings: CHO-K1
# Description: Ability to displace [3H]spiperone from dopamine receptor D4.4 expressed in CHO-K1 cells
row,Compound,pKi
1,Clc1ccc(N2CCN(Cc3ccccc3)CC2)cc1,6.6
2,OCc1ccc2c(CN3CCN(c4ccccc4)CC3)cnn2c1,7.71
3,C#Cc1ccc(N2CCN(Cc3cnn4ccccc34)CC2)cc1,8.36
4,Clc1ccc(N2CCN(Cc3cnn4c(I)cccc34)CC2)cc1,8.3
5,FC(F)(F)c1cccc(N2CCN(Cc3cnn4ccccc34)CC2)c1,8.72
6,Clc1ccc(N2CCN(Cc3ccc[nH]3)CC2)cc1,7.58
7,N#CC(C#N)=Cc1ccc(CN2CCN(c3ccc(Cl)cc3)CC2)[nH]1,8.02
8,Clc1ccc(N2CCN(Cc3cc[nH]c3)CC2)cc1,7.41
9,Ic1ccc(N2CCN(Cc3cnn4ccccc34)CC2)cc1,8.52
10,Clc1cccc(N2CCN(Cc3cnn4ccc5ccccc5c34)CC2)c1,6.1
11,Clc1cccc(N2CCN(Cc3cnn4c3ccc3ccccc34)CC2)c1,6.66
12,Cc1cccc2c(CN3CCN(c4ccc(Cl)cc4)CC3)cnn12,8.57
13,C#Cc1cccc2c(CN3CCN(c4ccc(Cl)cc4)CC3)cnn12,8.91
14,Fc1ccc(N2CCN(Cc3cnn4ccccc34)CC2)cc1,7.7
15,N#CC(C#N)=Cc1cc(CN2CCN(c3ccc(Cl)cc3)CC2)c[nH]1,8.24
16,Clc1ccc(N2CCN(Cc3cc4ccccc4[nH]3)CC2)cc1,7.74
17,Clc1ccc(N2CCN(Cc3cnn4ccccc34)CC2)cc1Cl,8.25
18,Cc1cccn2ncc(CN3CCN(c4ccc(Cl)cc4)CC3)c12,7.3
19,CCN1CCN(Cc2cnn3ccccc23)CC1,4.62
20,Clc1ccc(N2CCN(Cc3cc4ccccn4n3)CC2)cc1,8.66
